In the assay the target is T1, Peptidoglycan D,D-transpeptidase FtsI (UniProt P0AD68).
T1 sequence (P0AD68 whole entry): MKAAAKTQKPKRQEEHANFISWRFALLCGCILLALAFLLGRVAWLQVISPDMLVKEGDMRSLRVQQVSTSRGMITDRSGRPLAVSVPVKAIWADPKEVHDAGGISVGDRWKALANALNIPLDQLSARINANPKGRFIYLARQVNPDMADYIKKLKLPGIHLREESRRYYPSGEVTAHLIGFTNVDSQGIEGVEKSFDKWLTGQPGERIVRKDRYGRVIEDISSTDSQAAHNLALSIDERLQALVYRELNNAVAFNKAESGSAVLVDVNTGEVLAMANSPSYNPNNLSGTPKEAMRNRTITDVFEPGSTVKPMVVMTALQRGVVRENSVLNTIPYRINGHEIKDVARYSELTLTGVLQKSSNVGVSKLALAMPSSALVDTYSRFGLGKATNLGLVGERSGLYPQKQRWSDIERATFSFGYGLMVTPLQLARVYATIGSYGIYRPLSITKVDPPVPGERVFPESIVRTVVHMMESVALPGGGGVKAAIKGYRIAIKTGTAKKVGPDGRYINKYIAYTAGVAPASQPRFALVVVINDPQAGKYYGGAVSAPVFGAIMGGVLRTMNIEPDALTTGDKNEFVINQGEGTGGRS
In words: Fluorescence Polarization (FP) Competition Binding Assay. The method, then: To establish assay conditions for competition binding, an enzyme titration/saturation binding experiment was initially performed. Bocillin-FL was prepared at 0.2 μM in a buffer comprised of 50 mM Hepes (pH 8.0), 300 mM NaCl and 5% (v/v) glycerol. […] FP was measured immediately upon mixing (Excitation, 490 nm; Emission, 520 nm; g-factor, 0.96), using a Cytation3 (BioTek) microplate reader and measured continuously for up to 120 minutes. […] Bocillin-FL was added and the FP immediately measured for 60 minutes (90 minutes for PBP2).
(In general: Polarisation of emitted light reports the rotation of a fluorescent probe.)

This passage reports EC50 results from BindingDB's records for patent US12173018 (Venatorx Pharmaceuticals, 2024).

Structures are written as SMILES.

Turning to `CCN1CCN(C(=O)NC(C(=O)N[C@H]2Cc3cccc(C(=O)O)c3OB2O)c2ccc(O)c(S(N)(=O)=O)c2)C(=O)C1=O` (some centres not stated) [US12173018, Example 143], the EC50 (in general, the concentration that produces a half-maximal response) is less than 30 µM. For `NCCN1CCN(C(=O)N[C@@H](C(=O)N[C@H]2Cc3cccc(C(=O)O)c3OB2O)c2ccc(O)c(O)c2Cl)C(=O)C1=O` [US12173018, Example 220] the value was less than 30 µM.
